# Measurements: PubChem BioAssay (NCI)
# “And” between values parts separate entries of the source, which are not always exact repeats. Identical values can stand only once.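 Where inhibition never reached the appropriate level, the endpoint shown equals the highest concentration tested. Otherwise, values were interpolated linearly from a five-concentration, 48-hour dose response in 96-well plates. Abbreviation: GI50, concentration required for 50% inhibition of growth. At the TGI there is no net growth.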
# Test system: CCRF-CEM leukemia
# Assay: growth of human tumour cells (NCI), 48 h
SMILES,GI50 [µM],TGI
C[C@@H](CS(C)(=O)=O)Nc1ncc2cc(Oc3ccc(F)cc3F)c(=O)n(C)c2n1,> 25,> 25 µM
COc1cc2c(c(OC)c1O)C(=O)C(OC)C(c1ccc(O)c(O)c1)O2 (configuration not stated),0.428,> 31 µM
Cn1ccnc1C(=O)/C=C/c1ccc(CC(=O)Nc2ccc(Br)cc2)cc1,3.04,> 16.7 µM
CCOC(=O)Nc1nc2ccc(OCC)cc2s1,> 100,> 100 µM
NS(=O)(=O)c1ccccc1C(=O)N/N=C(\c1nc2ccc([N+](=O)[O-])cc2[nH]c1=O)C(O)c1ccc([N+](=O)[O-])cc1 (configuration not stated),–,> 100 µM
N#CC(C#N)=c1ccc(=C2NCC3CCCN23)cc1 (configuration not stated),–,> 100 µM
CC(C)c1ccc(C(C)C(=O)N(CC2=C(C(C)c3ccccn3)c3ccccc3C2)C(C)C)cc1 (configuration not stated),3.25,22 µM
Cc1nc2c(nc1C)C(=O)c1ccccc1C2=O,–,46.9 µM
O=[N+]([O-])c1cnc(Sc2ccncn2)s1,1.51,3.53 µM
O=C(Nc1ccc(I)cc1)c1cc([N+](=O)[O-])ccc1O,3.69,50.1 µM
Cc1cc(=O)n2[nH]c(-c3ccc(C(C)(C)C)cc3)cc2n1,4.19,> 100 µM
O=C(N/C(=C\c1cc(Cl)ccc1Cl)c1nc2[nH]c(=S)[nH]c(=O)c2[nH]1)c1ccccc1,–,69.7 µM
O=C(CN1CCN(c2cc3c(cc2F)c(=O)c(C(=O)N/N=C/c2ccccc2O)cn3C2CC2)CC1)N/N=C\c1ccccc1O,0.167,> 100 µM
C=C(CNCCO)[C@@H]1CC[C@]2(CO)CC[C@]3(C)[C@H](CC[C@@H]4[C@@]5(C)CCC(N)C(C)(C)[C@@H]5CC[C@]43C)[C@@H]12 (some centres not stated),2.04,5.93 µM
Nc1cc2nc3ccccc3sc-2cc1=O,2.47,> 100 µM
CN(CC(=O)O)S(=O)(=O)c1ccc2ccccc2c1,–,> 100 µM
CC1=C(C(=O)Nc2ccccc2C)C(c2ccco2)C(C(=O)Nc2ccccc2C)=C(C)N1C,–,> 100 µM
COc1cc2nc(-c3ccc(C(F)(F)F)cc3)cc(OCCCN3CCC(O)CC3)c2cc1OC,3.27,17.7 µM
CC(=O)OC(C)C(=O)C1c2cccc(O)c2C(=O)c2c(O)cc(C)cc21 (configuration not stated),–,6.05 µM
O=C1NNC(=O)c2ccccc2SSc2ccccc2C(=O)NNC(=O)c2ccccc2SSc2ccccc21,1.99,35 µM and 11.8 µM
NC(CCc1nc(-c2ccc(Cl)cc2)cs1)C(=O)O (configuration not stated),–,> 100 µM
COc1cc(C(=O)/C=C/c2sc(Cl)nc2Cl)cc(OC)c1OC,1.91,4.95 µM
COc1cc2nc(C)nc(N[C@H](C)c3cc(N)cc(C(F)(F)F)c3)c2cc1O[C@H]1CCOC1,13.5,49.3 µM
O=C1c2ccccc2C(=O)c2sc(Nc3cccc(Cl)c3)nc21,–,3.89 µM
CC1=C(C(=O)Nc2ccc(F)c(Cl)c2)C(c2ccc(Cl)cc2)NC(=O)N1 (configuration not stated),15.3,38.8 µM
Fc1ccc(Nc2ncnc3ccc(-c4cnc5[nH]ccc5c4)cc23)cc1Cl,7.83,> 100 µM
CN(C)CCCNC1=C(Cl)C(=O)c2ccccc2C1=O,3.9,14.4 µM
O=C(Nc1ccc(F)cc1F)c1cc(I)ccc1O,4.05,> 100 µM

# Test system: LOX IMVI melanoma
# Assay: growth of human tumour cells (NCI), 48 h
SMILES,GI50 [nM],TGI [µM]
C[C@@H](CS(C)(=O)=O)Nc1ncc2cc(Oc3ccc(F)cc3F)c(=O)n(C)c2n1,> 25000,> 25
COc1cc2c(c(OC)c1O)C(=O)C(OC)C(c1ccc(O)c(O)c1)O2 (configuration not stated),352,> 100
Cn1ccnc1C(=O)/C=C/c1ccc(CC(=O)Nc2ccc(Br)cc2)cc1,2070,4.28
CCOC(=O)Nc1nc2ccc(OCC)cc2s1,41700,> 100
NS(=O)(=O)c1ccccc1C(=O)N/N=C(\c1nc2ccc([N+](=O)[O-])cc2[nH]c1=O)C(O)c1ccc([N+](=O)[O-])cc1 (configuration not stated),–,> 100
N#CC(C#N)=c1ccc(=C2NCC3CCCN23)cc1 (configuration not stated),–,> 100
